Data taken from patent US10681909B2, “Herbicidal triazoles” (FMC Corporation, priority 2014, dated 2020).

How the values were obtained:
kochia = experiment: Test A postemergence; assay type: in vivo, Kochia scoparia; details: 0 to 100 scale (0 no effect, 100 complete control), approx. 10 d
How it was run: (§1)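 Visual injury score, 0 (no effect) to 100 (complete control), taken about 10 d after treatment against untreated greenhouse controls. Chemicals formulated in non-phytotoxic solvent plus surfactant; preemergence by directed soil spray onto sown loam/sand, postemergence onto one- to two-leaf plants.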

galium = experiment: Test A postemergence; assay type: in vivo, Galium aparine; details: 0 to 100 scale (0 no effect, 100 complete control), approx. 10 d
How it was run: as §1

chickweed = experiment: Test D preemergence; assay type: in vivo, Stellaria media; details: for Plant response rating: Chickweed: scale 0 to 100
Excerpt: (§2) Seeds of plant species selected from bluegrass (annual bluegrass, Poa annua), blackgrass (Alopecurus myosuroides), canarygrass (Phalaris minor), chickweed (common chickweed, Stellaria media), galium (catchweed bedstraw, Galium aparine), bromegrass, down (downy bromegrass, Bromus tectorum), Russian thistle (Salsola kali), field poppy (Papaver rhoeas), field violet (Viola arvensis), foxtail, green (green foxtail, Setaria viridis), deadnettle (henbit deadnettle, Lamium amplexicaule), ryegrass, Ital. (Italian ryegrass, Lolium multiflorum), kochia (Kochia scoparia), lambsquarters (Chenopodium album), oilseed rape (Brassica napus), pigweed (Amaranthus retroflexus), chamomile (scentless chamomile, Matricaria inodora), speedwell (bird's-eye speedwell, Veronica persica), barley, spring (spring barley, Hordeum vulgare), wheat, spring (spring wheat, Triticum aestivum), buckwheat, wild (wild buckwheat, Polygonum convolvulus), wild mustard (Sinapis arvensis), oat, wild (wild oat, Avena fatua), radish, wild (wild radish, Raphanus raphanistrum), […]), barley, winter (winter barley, Hordeum vulgare), and wheat, winter (winter wheat, Triticum aestivum) were planted into a silt loam soil and treated preemergence with test chemicals formulated in a non-phytotoxic solvent mixture which included a surfactant. At the same time, these species were planted in pots containing Sunshine Redi-Earth® planting medium comprising spaghnum peat moss, vermiculite, starter nutrients and dolomitic limestone and treated with postemergence applications of the test chemicals formulated in the same manner. Plants ranged in height from 2 to 18 cm (1- to 4-leaf stage). Treated plants and controls were maintained in a controlled growth environment for 14 to 21 d after which time all species were compared to controls and visually evaluated. […] A dash (-) response means no test result.

Russian thistle = experiment: Test D preemergence; assay type: in vivo, Salsola kali; details: for Plant response rating: Russian Thistle: scale 0 to 100
Excerpt: as §2

foxtail, green = experiment: Test D preemergence; assay type: in vivo, Setaria viridis; details: for Plant response rating: Foxtail, Green: scale 0 to 100
Excerpt: as §2

deadnettle = experiment: Test D preemergence; assay type: in vivo, Lamium amplexicaule; details: for Plant response rating: Deadnettle: scale 0 to 100
Excerpt: as §2

lambsquarters [1] = experiment: Test D preemergence; assay type: in vivo, Chenopodium album; details: for Plant response rating: Lambsquarters: scale 0 to 100
Excerpt: as §2

oat, wild [2] = experiment: Test D preemergence; assay type: in vivo, Avena fatua; details: for Plant response rating: Oat, Wild: scale 0 to 100
Excerpt: as §2

field violet = experiment: Test D postemergence; assay type: in vivo, Viola arvensis; details: scale 0 to 100
Excerpt: as §2

lambsquarters [3] = experiment: Test D postemergence; assay type: in vivo, Chenopodium album; details: scale 0 to 100
Excerpt: as §2

oilseed rape = experiment: Test D postemergence; assay type: in vivo, Brassica napus; details: scale 0 to 100
Excerpt: as §2

speedwell = experiment: Test D postemergence; assay type: in vivo, Veronica persica; details: scale 0 to 100
Excerpt: as §2

wheat, spring = experiment: Test D postemergence; assay type: in vivo, Triticum aestivum; details: scale 0 to 100
Excerpt: as §2

wheat, winter = experiment: Test D postemergence; assay type: in vivo, Triticum aestivum; details: scale 0 to 100
Excerpt: as §2

buckwheat, wild = experiment: Test D postemergence; assay type: in vivo, Polygonum convolvulus; details: scale 0 to 100
Excerpt: as §2

wild mustard = experiment: Test D postemergence; assay type: in vivo, Sinapis arvensis; details: scale 0 to 100
Excerpt: as §2

oat, wild [4] = experiment: Test D postemergence; assay type: in vivo, Avena fatua; details: scale 0 to 100
Excerpt: as §2

radish, wild = experiment: Test D postemergence; assay type: in vivo, Raphanus raphanistrum; details: scale 0 to 100
Excerpt: as §2

[5] = 16 g ai/ha, 0 is no effect, 100 is complete control

FC(F)(F)COc1nc(-c2ccccc2)nn1Cc1ccnc(C(F)(F)F)c1 [Compound 24]
100: Plant response rating: Foxtail, Green (foxtail, green; 125 g ai/ha) | Plant response rating: Deadnettle (deadnettle; 125 g ai/ha) | Plant response rating: Mustard, Wild (wild mustard; 62 g ai/ha) | Plant response rating: Mustard, Wild (wild mustard; 125 g ai/ha)
30: Plant response rating (0 to 100), Deadnettle (deadnettle; [5]) | Plant response rating (0 to 100), Oat, Wild (oat, wild [2]; [5]) | Plant response rating: Oat, Wild (oat, wild [2]; 62 g ai/ha)
25: Plant response rating: Wheat, Spring (wheat, spring; 62 g ai/ha)
45: Plant response rating: Oat, Wild (oat, wild [4]; 31 g ai/ha)
85: Plant response rating: Russian Thistle (Russian thistle; 62 g ai/ha) | Plant response rating: Russian Thistle (Russian thistle; 125 g ai/ha) | Plant response rating: Deadnettle (deadnettle; 62 g ai/ha) | Plant response rating: Lambsquarters (lambsquarters [1]; 125 g ai/ha) | Plant response rating: Lambsquarters (lambsquarters [3]; 125 g ai/ha) | Plant response rating: Oilseed Rape (oilseed rape; 125 g ai/ha)
95: Plant response rating: Radish, Wild (radish, wild; 31 g ai/ha) | Plant response rating: Radish, Wild (radish, wild; 62 g ai/ha) | Plant response rating: Radish, Wild (radish, wild; 125 g ai/ha)
90: Plant response rating, Kochia (kochia; 125 g ai/ha) | Plant response rating, Kochia (kochia; 500 g ai/ha) | Plant response rating, Galium (galium; 500 g ai/ha) | Plant response rating: Chickweed (chickweed; 125 g ai/ha) | Plant response rating: Field Violet (field violet; 125 g ai/ha) | Plant response rating: Speedwell (speedwell; 125 g ai/ha)
70: Plant response rating, Galium (galium; 125 g ai/ha) | Plant response rating: Chickweed (chickweed; 62 g ai/ha) | Plant response rating: Field Violet (field violet; 16 g ai/ha) | Plant response rating: Buckwheat, Wild (buckwheat, wild; 125 g ai/ha) | Plant response rating: Mustard, Wild (wild mustard; 31 g ai/ha) | Plant response rating: Radish, Wild (radish, wild; 16 g ai/ha)
55: Plant response rating (0 to 100), Chickweed (chickweed; [5]) | Plant response rating: Buckwheat, Wild (buckwheat, wild; 31 g ai/ha) | Plant response rating: Oat, Wild (oat, wild [4]; 125 g ai/ha)
75: Plant response rating (0 to 100), Foxtail, Green (foxtail, green; [5]) | Plant response rating: Field Violet (field violet; 31 g ai/ha) | Plant response rating: Lambsquarters (lambsquarters [3]; 31 g ai/ha) | Plant response rating: Oilseed Rape (oilseed rape; 31 g ai/ha) | Plant response rating: Speedwell (speedwell; 16 g ai/ha) | Plant response rating: Speedwell (speedwell; 31 g ai/ha) | Plant response rating: Speedwell (speedwell; 62 g ai/ha)
65: Plant response rating (0 to 100), Russian Thistle (Russian thistle; [5]) | Plant response rating (0 to 100), Lambsquarters (lambsquarters [1]; [5]) | Plant response rating: Lambsquarters (lambsquarters [3]; 16 g ai/ha) | Plant response rating: Oilseed Rape (oilseed rape; 16 g ai/ha) | Plant response rating: Mustard, Wild (wild mustard; 16 g ai/ha)
20: Plant response rating: Wheat, Winter (wheat, winter; 62 g ai/ha) | Plant response rating: Wheat, Winter (wheat, winter; 125 g ai/ha)
60: Plant response rating: Chickweed (chickweed; 31 g ai/ha) | Plant response rating: Buckwheat, Wild (buckwheat, wild; 62 g ai/ha)
98: Plant response rating: Foxtail, Green (foxtail, green; 62 g ai/ha)
50: Plant response rating: Buckwheat, Wild (buckwheat, wild; 16 g ai/ha) | Plant response rating: Oat, Wild (oat, wild [4]; 62 g ai/ha)
80: Plant response rating: Deadnettle (deadnettle; 31 g ai/ha) | Plant response rating: Lambsquarters (lambsquarters [1]; 62 g ai/ha) | Plant response rating: Field Violet (field violet; 62 g ai/ha) | Plant response rating: Lambsquarters (lambsquarters [3]; 62 g ai/ha) | Plant response rating: Oilseed Rape (oilseed rape; 62 g ai/ha)
35: Plant response rating: Oat, Wild (oat, wild [2]; 125 g ai/ha) | Plant response rating: Oat, Wild (oat, wild [4]; 16 g ai/ha)
15: Plant response rating: Wheat, Spring (wheat, spring; 16 g ai/ha) | Plant response rating: Wheat, Spring (wheat, spring; 31 g ai/ha) | Plant response rating: Wheat, Spring (wheat, spring; 125 g ai/ha) | Plant response rating: Wheat, Winter (wheat, winter; 16 g ai/ha) | Plant response rating: Wheat, Winter (wheat, winter; 31 g ai/ha)
